pIC50: −log10 of the molar value.

One experiment addresses T1, h-DHODH (Homo sapiens, UniProt Q02127).
T1 construct: made in house
The experiment is described as follows: DHODH enzymatic assay (DCIP reduction). It is filed as biochemical. The note with it: recombinant human enzyme, 25° C., pH 8.0. Here is the method:
DHODH Enzymatic Assay: DHODH activity was determined at 25° C. following the reduction of 2,6-dichloroindophenol sodium salt (DCIP) at 600 nm (ε=18 800 M^−1 cm^−1) on a spectrophotometer. The reaction medium used contained 50 mM Tris-HCl, pH 8.0, 0.1% Triton X-100, 0.1 mM LDHO, 0.025 mM CoQ1, and 0.06 mM DCIP. The reaction was started by addition of the enzyme. The inhibitory potency of the compounds was evaluated by measuring the initial velocity of the reaction either in the absence or in the presence of the compounds at the indicated concentrations. The DHODH enzyme used was the recombinant human enzyme prepared as previously described (Helene Munier-Lehmann, et al., J. Med. Chem. 2015, 58:860-877).

For experiment [1], the system named is AML cell lines (MOLM13 and OCI-AML3). In words: MTS cell proliferation assay, AML cell lines. It is filed as cell-based. The note with it: range over the two AML cell lines, one study; read-out: growth arrest in AML cell lines, IC50 range. How it is done: (§1) MTS assay for cell growth/viability: Mitochondrial activity was measured to determine cell proliferation using an MTS assay ([…]). Metabolically active cells convert MTS tetrazolium salt into a purple formazan product that is soluble in tissue culture medium. The amount of formazan measured at 490 nm absorbance is proportional to the number of proliferating cells. MTS assays in AML cell lines were carried out with 20K cells plated per well in 96-well plates with Cpd3 or brequinar in a dose series ranging from 0.0001 to 10 μM. Triplicate wells were set up for each condition. At 96 hours, the MTS reagent was added and after approximately 4 hours the plates were read in a spectrophotometer.
(§2) Biological Activity: Cell proliferation assays were carried out using the MTS assay described herein using two AML cell lines (i.e., MOLM13 and OCI-AML3) with varied genetic backgrounds. The assays were carried out in a blinded fashion.
Background: Tetrazolium assays rely on reduction of a dye to a coloured formazan, in cell work by metabolically active cells.

The subject of the next experiment is MOLM13 cell line. The experiment is described as follows: MTS assay for cell growth/viability, MOLM13. It counts as cell-based. The note with it: Homo sapiens. Here is the method:
as §1, with “MTS assays in AML cell lines were carried out with 20K cells plated per well in 96-well plates with Cpd3 or brequinar in a dose series ranging from 0.0001 to 10 μM.” left out
as §2

A further experiment has as its system OCI-AML3 cell line. The experiment is described as follows: MTS assay for cell growth/viability, OCI-AML3. It counts as cell-based. The note with it: Homo sapiens, OCI-AML-3, 96 hours, Table 2 (one study). Here is the method: as §1, §2
Where [2] appears, read: MOLM-13, Table 3 (second study), dose range of 2 nM to 10000 nM.

T1 sequence (Q02127 whole entry): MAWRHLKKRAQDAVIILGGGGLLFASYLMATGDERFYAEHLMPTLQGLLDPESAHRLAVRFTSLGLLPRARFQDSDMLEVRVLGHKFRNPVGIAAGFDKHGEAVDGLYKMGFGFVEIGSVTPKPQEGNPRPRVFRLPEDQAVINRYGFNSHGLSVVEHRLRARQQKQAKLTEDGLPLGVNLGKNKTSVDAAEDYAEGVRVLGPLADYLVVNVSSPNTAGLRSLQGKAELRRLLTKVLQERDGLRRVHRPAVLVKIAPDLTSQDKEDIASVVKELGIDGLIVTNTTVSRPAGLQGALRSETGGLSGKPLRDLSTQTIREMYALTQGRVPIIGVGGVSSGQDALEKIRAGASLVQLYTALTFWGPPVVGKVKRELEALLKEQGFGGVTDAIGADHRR

A word on the pIC50: it is −log10 of the IC50, conventionally taken in molar units. `CCOc1ccc(-c2ccc(-c3cc(C(=O)O)c4cc(F)ccc4n3)cc2F)cc1` [Cpd1, 2-(4′-ethoxy-2-fluoro-[1,1′-biphenyl]-4-yl)-6-fluoroquinoline-4-carboxylic acid]: the pIC50 was 8.61 at h-DHODH; 7.71 to 7.84 in experiment [1]; 7.84 in the experiment with MOLM13 cell line (MOLM-13, 96 hours, Table 2 (one study)); 7.89 with MOLM13 cell line (setting [2]); 7.71 in the experiment with OCI-AML3 cell line.

In the case of `CCOc1cccc(-c2ccc(-c3cc(C(=O)O)c4cc(F)ccc4n3)cc2F)c1` [Cpd2, 2-(3′-ethoxy-2-fluoro-[1,1′-biphenyl]-4-yl)-6-fluoroquinoline-4-carboxylic acid], the pIC50 at h-DHODH is above 9.30; in the experiment with MOLM13 cell line (setting [2]), 7.80.

For `CCCCOc1cccc(-c2ccc(-c3cc(C(=O)O)c4cc(F)ccc4n3)cc2F)c1` [Cpd3, 2-(3′-butoxy-2-fluoro-[1,1′-biphenyl]-4-yl)-6-fluoroquinoline-4-carboxylic acid], the pIC50 is above 9.30 at h-DHODH and 7.80 in the experiment with MOLM13 cell line (setting [2]).

As to `O=C(O)c1cc(-c2ccc(-c3ccccc3)c(F)c2)nc2ccc(F)cc12` [Cpd4], the negative logarithm of the IC50 (pIC50) on h-DHODH is 9.14; with MOLM13 cell line (setting [2]), 7.39.

Consider `O=C(O)c1cc(-c2ccc(-c3ccccc3F)c(F)c2)nc2ccc(F)cc12` [Cpd5, 2-(2,2′-difluoro-[1,1′-biphenyl]-4-yl)-6-fluoroquinoline-4-carboxylic acid], for which the figures for the pIC50 at h-DHODH and with MOLM13 cell line (setting [2]) were 8.78 and 7.85, respectively.

In the case of `CCNc1ccc(-c2ccc(-c3cc(C(=O)O)c4cc(F)ccc4n3)cc2F)cc1` [Cpd6, 2-(4′-(ethylamino)-2-fluoro-[1,1′-biphenyl]-4-yl)-6-fluoroquinoline-4-carboxylic acid], the negative logarithm of the IC50 (pIC50) at h-DHODH was 8.87; in the experiment on MOLM13 cell line (setting [2]) it was above 8.70.

For `CCOc1ccc(-c2cc(F)c(-c3cc(C(=O)O)c4cc(F)ccc4n3)cc2F)cc1` [Cpd7, 2-(4′-ethoxy-2,5-difluoro-[1,1′-biphenyl]-4-yl)-6-fluoroquinoline-4-carboxylic acid], the pIC50 on h-DHODH was 8.85; in the experiment with MOLM13 cell line (setting [2]) it was above 8.70.

As for `CCOc1cccc(-c2cc(F)c(-c3cc(C(=O)O)c4cc(F)ccc4n3)cc2F)c1` [Cpd8, 2-(3′-ethoxy-2,5-difluoro-[1,1′-biphenyl]-4-yl)-6-fluoroquinoline-4-carboxylic acid], the pIC50 at h-DHODH is above 9.29; with MOLM13 cell line (setting [2]), above 8.70.

For `CCOc1ccc(-c2ccc(-c3cc(C(=O)O)c4cc(F)ccc4n3)c(F)c2)cc1` [Cpd9, 2-(4′-ethoxy-3-fluoro-[1,1′-biphenyl]-4-yl)-6-fluoroquinoline-4-carboxylic acid], the pIC50 on h-DHODH is 8.26.

On to `CCOc1cccc(-c2ccc(-c3cc(C(=O)O)c4cc(F)ccc4n3)c(F)c2)c1` [Cpd10, 2-(3′-ethoxy-3-fluoro-[1,1′-biphenyl]-4-yl)-6-fluoroquinoline-4-carboxylic acid], for which the figures for the pIC50 at h-DHODH and with MOLM13 cell line (setting [2]) were 9.15 and above 8.70, respectively.

On to `CCCCOc1cccc(-c2cc(F)c(-c3cc(C(=O)O)c4cc(F)ccc4n3)cc2F)c1` [Cpd11, 2-(3′-butoxy-2,5-difluoro-[1,1′-biphenyl]-4-yl)-6-fluoroquinoline-4-carboxylic acid], for which, on h-DHODH, the negative logarithm of the IC50 (pIC50) is above 9.29.

Take `CCCCOc1cccc(-c2ccc(-c3cc(C(=O)O)c4cc(F)ccc4n3)c(F)c2)c1` [Cpd12, 2-(3′-butoxy-3-fluoro-[1,1′-biphenyl]-4-yl)-6-fluoroquinoline-4-carboxylic acid]: the pIC50 on h-DHODH is 9.15; in the experiment with MOLM13 cell line (setting [2]) it was above 8.70.

With `CCOc1ccc(-c2ccc(-c3cc(C(=O)O)c4cc(F)ccc4n3)cc2C)cc1` [Cpd13, 2-(4′-ethoxy-2-methyl-[1,1′-biphenyl]-4-yl)-6-fluoroquinoline-4-carboxylic acid], the figures for the pIC50 at h-DHODH and in the experiment on MOLM13 cell line (setting [2]) were 8.82 and above 8.70, respectively.

For the compound `CCOc1cccc(-c2ccc(-c3cc(C(=O)O)c4cc(F)ccc4n3)cc2C)c1` [Cpd14], the negative logarithm of the IC50 (pIC50) on h-DHODH was 8.85; in the experiment on MOLM13 cell line (setting [2]), above 8.70.

As for `CCOc1ccc(-c2ccc(-c3cc(C(=O)O)c4cc(F)ccc4n3)cc2OC)cc1` [Cpd15, 2-(4′-ethoxy-2-methoxy-[1,1′-biphenyl]-4-yl)-6-fluoroquinoline-4-carboxylic acid], the figures for the pIC50 at h-DHODH and with MOLM13 cell line (setting [2]) were 8.38 and above 8.70, respectively.

In the case of `CCOc1cccc(-c2ccc(-c3cc(C(=O)O)c4cc(F)ccc4n3)cc2OC)c1` [Cpd16, 2-(3′-ethoxy-2-methoxy-[1,1′-biphenyl]-4-yl)-6-fluoroquinoline-4-carboxylic acid], the negative logarithm of the IC50 (pIC50) was 8.89 at h-DHODH and above 8.70 in the experiment on MOLM13 cell line (setting [2]).

Turning to `CCOc1ccc(-c2cc(F)c(-c3cc(C(=O)O)c4cc(F)ccc4n3)c(F)c2)cc1` [Cpd17, 2-(4′-ethoxy-3,5-difluoro-[1,1′-biphenyl]-4-yl)-6-fluoroquinoline-4-carboxylic acid], the pIC50 at h-DHODH is 8.21; in the experiment with MOLM13 cell line (setting [2]), 7.37.

As for `CCOc1cccc(-c2cc(F)c(-c3cc(C(=O)O)c4cc(F)ccc4n3)c(F)c2)c1` [Cpd18], the negative-log IC50 (pIC50) at h-DHODH was 8.92; with MOLM13 cell line (setting [2]), above 8.70.

Take `CCOc1ccc(-c2ccc(-c3cc(C(=O)O)c4cc(F)ccc4n3)cc2Cl)cc1` [Cpd19, 2-(2-chloro-4′-ethoxy-[1,1′-biphenyl]-4-yl)-6-fluoroquinoline-4-carboxylic acid]: the values for the negative logarithm of the IC50 (pIC50) on h-DHODH and in the experiment with MOLM13 cell line (setting [2]) were 8.96 and above 8.70, respectively.

As to `CCOc1cccc(-c2ccc(-c3cc(C(=O)O)c4cc(F)ccc4n3)cc2Cl)c1` [Cpd20, 2-(2-chloro-3′-ethoxy-[1,1′-biphenyl]-4-yl)-6-fluoroquinoline-4-carboxylic acid], the negative logarithm of the IC50 (pIC50) on h-DHODH is 9.22; in the experiment with MOLM13 cell line (setting [2]) it was above 8.70.

Consider `CCOc1ccc(-c2ccc(-c3cc(C(=O)O)c4cc(F)ccc4n3)c(C)c2)cc1` [Cpd21, 2-(4′-ethoxy-3-methyl-[1,1′-biphenyl]-4-yl)-6-fluoroquinoline-4-carboxylic acid], for which the negative logarithm of the IC50 (pIC50) was 7.94 at h-DHODH and 6.27 with MOLM13 cell line (setting [2]).

Take `CCCCOc1cccc(-c2ccc(-c3cc(C(=O)O)c4cc(F)ccc4n3)c(C)c2)c1` [Cpd22, 2-(3′-butoxy-3-methyl-[1,1′-biphenyl]-4-yl)-6-fluoroquinoline-4-carboxylic acid]: the negative logarithm of the IC50 (pIC50) was above 9.29 on h-DHODH and 7.47 with MOLM13 cell line (setting [2]).

In the case of `CCOc1ccc(-c2ccc(-c3cc(C(=O)O)c4cc(F)ccc4n3)c(OC)c2)cc1` [Cpd23, 2-(4′-ethoxy-3-methoxy-[1,1′-biphenyl]-4-yl)-6-fluoroquinoline-4-carboxylic acid], the pIC50 was 7.80 at h-DHODH and 6.27 in the experiment with MOLM13 cell line (setting [2]).

For the compound `CCOc1ccc(-c2ccc(-c3cc(C(=O)O)c4cc(F)ccc4n3)c(Cl)c2)cc1` [Cpd24, 2-(3-chloro-4′-ethoxy-[1,1′-biphenyl]-4-yl)-6-fluoroquinoline-4-carboxylic acid], the negative logarithm of the IC50 (pIC50) on h-DHODH is 7.65; with MOLM13 cell line (setting [2]) it was 6.33.

Turning to `CCCCOc1cccc(-c2ccc(-c3cc(C(=O)O)c4cc(F)ccc4n3)cc2C)c1` [Cpd25, 2-(3′-butoxy-2-methyl-[1,1′-biphenyl]-4-yl)-6-fluoroquinoline-4-carboxylic acid], the pIC50 on h-DHODH is above 9.29; in the experiment on MOLM13 cell line (setting [2]), above 8.70.

`CCCCOc1cccc(-c2ccc(-c3cc(C(=O)O)c4cc(F)ccc4n3)c(OC)c2)c1` [Cpd26, 2-(3′-butoxy-3-methoxy-[1,1′-biphenyl]-4-yl)-6-fluoroquinoline-4-carboxylic acid]: the negative-log IC50 (pIC50) is 9.15 on h-DHODH and 7.96 in the experiment with MOLM13 cell line (setting [2]).

For `CCCCOc1cccc(-c2ccc(-c3cc(C(=O)O)c4cc(F)ccc4n3)c(Cl)c2)c1` [Cpd27], the pIC50 at h-DHODH is above 9.29; in the experiment with MOLM13 cell line (setting [2]) it was 7.80.

Source of the values: patent publication US20240018108A1, “METHODS AND COMPOSITIONS FOR INHIBITION OF DIHYDROOROTATE DEHYDROGENASE” (OHIO STATE INNOVATION FOUNDATION, priority 2019, published 2024).
